Assay results as given in patent US20230116196A1, “METHOD OF TREATING CNS DISORDERS WITH NEU[…] GABAERGIC COMPOUNDS” (priority 2017, published 2023).

Legend:
[1] = tested on: dentate gyrus granule cells (DGGCs); test: Acute NAS exposure: tonic current in DGGCs of hippocampal slices; type: cell-based, mouse; conditions: 100 nM, 10 min acute exposure; mean±SEM
Procedure: Brain slices were prepared from 3- to 5-week-old male C57 mice. Mice were anesthetized with isoflurane, decapitated, and brains were rapidly removed and submerged in ice-cold cutting solution containing (mM): 126 NaCl, 2.5 KCl, 0.5 CaCl2, 2 MgCl2, 26 NaHCO3, 1.25 NaH2PO4, 10 glucose, 1.5 sodium pyruvate, and 3 kynurenic acid. Coronal 310 μm thick slices were cut with the vibratome VT1000S (Leica Microsystems, St Louis, Mo., USA). The slices were then transferred into incubation chamber filled with prewarmed (31-32° C.) oxygenated artificial cerebro-spinal fluid (ACSF) of the following composition (in mM): 126 NaCl, 2.5 KCl, 2 CaCl2, 2 MgCl2, 26 NaHCO3, 1.25 NaH2PO4, 10 glucose, 1.5 sodium pyruvate, 1 glutamine, 3 kynurenic acid and 0.005 GABA bubbled with 95% O2-5% CO2. Slices were allowed to recover at 32° C. for at least 1 hr before recording. Exogenous GABA was added in an attempt to standardize ambient GABA in the slice and provide an agonist source for newly inserted extrasynaptic GABAARs. […]
Whole-cell currents were recorded from the dentate gyrus granule cells (DGGCs) in 310-μm-thick coronal hippocampal slices. […] A 5 min period for stabilization after obtaining the whole-cell recording conformation (holding potential of −60 mV) was allowed before currents were recorded using an Axopatch 200B amplifier (Molecular Devices), low-pass filtered at 2 kHz, digitized at 20 kHz (Digidata 1440A; Molecular Devices), and stored for offline analysis.
For tonic current measurements, an all-points histogram was plotted for a 10 s period before and during 100 μM picrotoxin application, once the response reached a plateau level. […] Series resistance and whole-cell capacitance were continually monitored and compensated throughout the course of the experiment. […] Spontaneous inhibitory post-synaptic currents (sIPSCs) were analyzed using the mini-analysis software (version 5.6.4; Synaptosoft, Decatur, Ga.). […] Only recordings with a minimum of 200 events fitting these criteria were analyzed. sIPSCs amplitude, and frequency from each experimental condition was pooled and expressed as mean±SEM. […]

[2] = tested on: GABAA receptor β3 subunit S408/9; test: Immunoblot of β3 S408/9 phosphorylation in hippocampal slices; type: cell-based, mouse; conditions: 20 min exposure (100 nM in FIG. 6)
Procedure: Asterisks represent a significant difference from control (ALLO: p<0.01, Student's t-test, n=10 slices, from 10 mice; SGE-516: p<0.05, Student's t-test, n=4 slices, from 4 mice). […] Asterisks represent a significant difference from control (ALLO: p<0.05, Student's t-test, n=8 slices; SGE-516: p<0.05, Student's t-test, n=4 slices).
Hippocampi were dissected out of acute slices from 8 to 12 week old C57/Bl6 mice and lysed with […] including: 20 mM Tris-HCl, 150 mM NaCl, 5 mM EDTA, 10 mM NaF, 2 mM Na3VO4, 10 mM pyrophosphate, 0.1% SDS and 1% Triton after drug treatment. The β3 subunit was isolated using immunoprecipitation with β3 antibodies, after correction for protein content and the specific activity of labeling. Results were attained by SDS/PAGE followed by autoradiography (Abramian et al., 2010). For biotinylation experiments hippocampi were dissected out of acute slices from 8 to 12 week old C57/Bl6 mice and incubated in artificial cerebrospinal fluid (ACSF) described above at 30° C. for 1 h for recovery before experimentation. Slices were then placed on ice and incubated for 30 min with 1 mg/mL NHS-SS-biotin (Pierce). Excess biotin was removed by a 50 mM glycine quenching buffer, followed by washing of slices three times in ice-cold ACSF. The tissue was snap frozen on dry ice for 5 min, thawed at 4° C. and lysed. The lysates were solubilized with 2% Triton at 4° C. on a rotating wheel for 1 h. The insoluble material was removed by centrifugation, and 350-500 μg of protein lysate were incubated with NeutrAvidin beads (Pierce) for 18-24 h at 4° C. Bound material was eluted with sample buffer and subjected to SDS/PAGE and then immunoblotted with the indicated antibodies. Blots were then quantified using the CCD-based ChemiDoc XRS ? system. Antibodies against the β3 subunit and the phospho-β3 antibody were generated and verified by the laboratory of S.J.M. (Vien et al., 2015).
Treatment of hippocampal slices with SGE-516 increased the phosphorylation of S408/9 measured using pS408/9 antibodies. To produce antibodies specific for phosphorylated S443, rabbits were injected with a synthetic peptide corresponding to residues […] of the murine α4 subunit in which the serine residue corresponding to S443 was chemically phosphorylated; […]. Hippocampal slices were treated with vehicle (Con), or SGE-516 for 20 min. Slices were immunoblotted with pS408/9, β3, or actin antibodies. The ratio of pS408/9/β3 immunoreactivity was then normalized to control slices (100%=the line).
Hippocampal slices were treated with 100 nM ALLO or P4 (progesterone), and S408/9 phosphorylation was then determined as detailed above, n=4 slices (FIG. 18D). Hippocampal slices were treated with 100 nM ORG (FIG. 18E). S408/9 phosphorylation was examined using immunoblotting. […]

CC(=O)[C@H]1CC[C@H]2[C@@H]3CC[C@H]4C[C@H](O)CC[C@]4(C)[C@H]3CC[C@]12C [ALLO, Allopregnanolone]
tonic current during acute exposure [1]: 58.3±13.0 pA
β3 S408/409 phosphorylation in hippocampal slices [2]: increases

CC(=O)[C@H]1CC[C@H]2[C@@H]3CC[C@H]4C[C@](C)(O)CC[C@]4(C)[C@H]3CC[C@]12C [Ganaxolone]
tonic current during acute exposure [1]: 78.8±23.2 pA

C[C@@]1(O)CC[C@@]2(C)[C@H](CC[C@@H]3[C@@H]2CC[C@]2(C)[C@@H](C(=O)Cn4nccn4)CC[C@@H]32)C1 [SGE-516]
tonic current during acute exposure [1]: 49.2±8.9 pA
β3 S408/409 phosphorylation in hippocampal slices [2]: increases
